Test results as given in patent US7772209B2, “Antifolate combination therapies” (Eli Lilly and Company, priority 2000, dated 2010).

Legend:
[1] = Clinical response to chemotherapy in chemonaive patients; format: in vivo, human; settings: responders out of group size
Description: Additionally, sixty-two chemonaive patients requiring chemotherapeutic treatment were divided into two groups.

[2] = Body weight as general measure of toxicity in MX-1 tumor-bearing nude mice
Method: (§1) The animals were maintained on sterilized standard lab chow ad libitum and sterilized water ad libitum. The human MX-1 tumor cells (5×10^6) obtained from donor tumors were implanted subcutaneously in a thigh of female nude mice 8- to 10-weeks old. Beginning on day 7 post tumor cell implantation, the animals were treated with ALIMTA (100 mg/kg or 150 mg/kg) once daily on days 7 through 11 and 14 through 18 by intraperitoneal injection alone or along with folic acid (6 mg/kg or 60 mg/kg) and/or vitamin B12 (165 mg/kg) by intraperitoneal injection on the same schedule.
(§2) Tumor response was monitored by tumor volume measurements twice weekly over the course of the experiment. Toxicity was monitored by body weight measurements made at the same time as the tumor volume measurements. Tumor growth delay was the difference in days for the treated and the controls tumors to reach 1000 mm^3.
Body weight was used as a general measure of toxicity for each of the treatment regimens. The body weight loss pattern reflected the treatment regimens with weight decrease during the treatment times of days 7 through 11 and 14 through 18 with some weight recovery during the intervening two days. The weight loss due to ALITMA was dose dependent but overall minor (3%).

[3] = grade 3/4 toxic events, N = 246, not supplemented
Method: One to two weeks prior to administration of ALIMTA urine is collected and blood is drawn from a human subject; and vitamin metabolite levels, methylmalonic acid and homocysteine, are determined. Homocysteine levels are determined in blood by a fluorescent polarization immunoassay kit manufactured by Abbot Laboratories. Methylmalonic acid levels are determined by urine levels using a 24 hour urine collection kit available from Biolab Medical Unit (a United Kingdom company). Additionally urine and blood may be collected one week prior to administration of ALIMTA (after at least 5 days of folic acid supplementation and at least 1 week vitamin B12 supplementation), and up to 4 days prior to every cycle.
For purposes of this study, patients should take oral folic acid daily beginning approximately 1 to 3 weeks before treatment with ALIMTA plus cisplatin or cisplatin alone and continuing daily until discontinuation from study therapy.
Vitamin B12 will be obtained and administered as a 1000 μg intramuscular injection. A vitamin B12 injection must be administered approximately 1 to 3 weeks before treatment with ALIMTA and should be repeated approximately every 9 weeks until the patient discontinues from study therapy.
Folic acid supplementation, 350-600 μg or equivalent should be taken orally daily beginning approximately 1 to 3 weeks prior to the first dose of MTA plus cisplatin and continue daily until the patient discontinues from study therapy. A vitamin B12 injection, 1000 μg, must be given intramuscularly approximately 1 to 3 weeks prior to the first dose of ALIMTA and should be repeated approximately every 9 weeks until the patient discontinues from study therapy.
The data to be compared are: • 1) Patient numbers and baseline demographic data for those supplemented from baseline. • 2) Homocysteine and methylmalonic acid levels, levels at baseline, prior to first dose, prior to second dose, and prior to each therapy cycle depending of the type of cancer under study. • 3) Grade 3 and 4 hematologic toxicity in these fully supplemented patients. • 4) Grade 3 and 4 nonhematologic toxicity in these fully supplemented patients.
Cyanocobalamin is used as the methylmalonic acid lowering agent in these studies.

[4] = system: human MX-1 breast carcinoma; experiment: Tumor growth delay in human MX-1 breast carcinoma xenograft in female nude mice; format: in vivo
Method: To assess the effect of a methylmalonic acid lowering agent, alone or in combination with folic acid on the antitumor efficacy of an antifolate in a human tumor xenograft model, female nude mice bearing human MX-1 breast carcinoma were treated with ALIMTA alone or along with super-physiologic doses of folic acid or vitamin B12 (cobalamin).
as §1, §2

Molecule: Nc1nc2[nH]cc(CCc3ccc(C(=O)N[C@@H](CCC(=O)O)C(=O)O)cc3)c2c(=O)[nH]1 [ALIMTA, pemetrexed disodium]
- Patients who responded to the chemotherapy [1]: 1 out of 17
- Body weight loss ([2]; mouse, in vivo): 3%
- Percent of occurrences prior to B12/folic acid treatment: Diarrhea [3]: 6%
- Percent of occurrences prior to B12/folic acid treatment: Hematologic Toxicity/Non-Hematologic Toxicity [3]: 37%
- Percent of occurrences prior to B12/folic acid treatment: Mucositis [3]: 5%
- Percent of occurrences prior to B12/folic acid treatment: Neutropenia [3]: 32%
- Percent of occurrences prior to B12/folic acid treatment: Neutropenia and Diarrhea [3]: 3%
- Percent of occurrences prior to B12/folic acid treatment: Neutropenia and Infection [3]: 2%
- Percent of occurrences prior to B12/folic acid treatment: Neutropenia and Mucositis [3]: 3%
- Tumor growth delay ([4]; ALIMTA 100 mg/kg ip once daily days 7-11 and 14-18, alone, time to reach 1000 mm^3 vs controls): 17 days
- Tumor growth delay ([4]; ALIMTA 150 mg/kg ip once daily days 7-11 and 14-18, alone): 21 days

Molecule: Nc1nc2ncc(CNc3ccc(C(=O)N[C@@H](CCC(=O)O)C(=O)O)cc3)nc2c(=O)[nH]1 [Folic acid, folic acid]
- Tumor growth delay ([4]; folic acid 6 mg/kg ip alone, same schedule): 7 days
- Tumor growth delay ([4]; folic acid 60 mg/kg ip alone, same schedule): 12 days

Molecule: vitamin B12
- Body weight change ([2]; vitamin B12 administration): did not prevent weight gain
- Tumor growth delay ([4]; vitamin B12 165 mg/kg ip alone, same schedule): 12 days
